Data as given in patent US20070254947A1, “Composition for external use” (ROHTO PHARMACEUTICAL CO., LTD., priority 2006, published 2007).

Experiments:
[1] = approximate ratio, reportedly; cited from earlier work
[2] = system: Normal human dermal fibroblasts (NHDF-AD)
Description: Normal human dermal fibroblasts (NHDF-AD: product of Kurabo Industries, Ltd.) were inoculated onto a 24-well plate (1.0×10^4 cells/well), and incubated for four days in 1 ml of DMEM containing 10% FBS(vol/vol). Subsequently, the supernatant of the wells was replaced with 1 ml of fresh DMEM containing 10% FBS(vol/vol), and 5 μl of ethanol solution containing a predetermined concentration of tocopherol or 5 μl of ethanol was added to the concentrations shown in Tables 1 and 2, and […] of 0.045% hydroquinone solution was added, followed by incubation for 24 hours. Then, the supernatant of the wells were removed by replacement with 1 ml of medium, and the number of cells that survived was determined by WST-1 assay.

[3] = J. Act. Oxyg. Free Rad. 3:531-54; cited from earlier work

SMILES	ratio of biological activities of α-, β-, γ-, and δ-tocopherols [1]	survival rate, times higher than that of Control 1 [2]	antioxidant activity against oils and fats (rank) [3]	hydroquinone-cytotoxicity-reducing activity (rank among tocopherols) [2]	survival rate compared with Control 1 [2]
Cc1c(C)c2c(c(C)c1O)CC[C@@](C)(CCC[C@H](C)CCC[C@H](C)CCCC(C)C)O2 [α-tocopherol]	approximately 100	more than 1.3 times	lowest		
Cc1cc(O)c(C)c2c1O[C@](C)(CCC[C@H](C)CCC[C@H](C)CCCC(C)C)CC2 [β-tocopherol]	~24				
Cc1c(O)cc2c(c1C)O[C@](C)(CCC[C@H](C)CCC[C@H](C)CCCC(C)C)CC2 [γ-tocopherol]	~4	more than 2.3 times		second highest	
Cc1cc(O)cc2c1O[C@](C)(CCC[C@H](C)CCC[C@H](C)CCCC(C)C)CC2 [δ-tocopherol]	~0.1		highest	highest	remarkably higher survival rate
